From patent USRE30149E, “Preparation of antifibrinolytically active isomer of 4-aminomethylcyclohexane carboxylic acid” (AB Kabi, priority 1963, dated 1979)

Key:
[1] = system: streptokinase-induced fibrinolysis (fibrinogen, plasminogen, thrombin system); assay: in vitro antifibrinolytic activity, 50% inhibition of streptokinase-induced fibrinolysis; assay type: biochemical; conditions: for Actual amount of compound for 50% inhibition of 6 units of streptokinase: fibrinogen, plasminogen, thrombin plus 6 units of streptokinase
Method: Antifibrinolytic activity quantitative assay was conducted by a technique utilizing the procedures described by Christensen, L. E. in J. clin. Invest., volume 28 (1949), page 163, and Wasserman, A. E., et al. in J. Lab. clin. Med., volume 4 (1953), page 812. […] The system consists of fibrinogen, plasminogen, and thrombin, to which is added 6 units of streptokinase which produces a lytic effect. The 50% inhibition studied corresponds to a lytic activity of 3 units of streptokinase. […] The time necessary for the formed plasmin to dissolve a standard fibrin coagulum is determined.
The following table furnishes the data on the in vitro antifibrinolytic activity of the several compounds considered in this specification, expressed as 50% inhibition of 6 units of streptokinase: […]

[2] = animal organism, i.e. the subject being treated; cited from earlier work
[3] = system: fibrinolysis; conditions: cited from earlier work

NCCCCCC(=O)O [EACA, epsilon-aminocaproicacid]
Relative activity ([1]; in vitro, 50% inhibition of 6 units of streptokinase, relative to EACA = 1): 1 | Actual amount of compound for 50% inhibition of 6 units of streptokinase ([1]; in vitro): 4 γ | excretion [2]: so rapidly excreted | antifibrinolytic activity in clinical use [3]: acceptable degree of antifibrinolytic activity

NCC1CCC(C(=O)O)CC1 (single isomer, unassigned; isomer 4) [Inactive-AMCHA isomer, 4-aminomethyl-cyclohexane carboxylic acid]
antifibrinolytic activity ([1]; evaluation of the two separate AMCHA isomers): practically devoid of any antifibrinolytic activity | Actual amount of compound for 50% inhibition of 6 units of streptokinase ([1]; in vitro): 30 γ

NCC1CCC(C(=O)O)CC1 (single isomer, unassigned; isomer 4) [Active-AMCHA isomer, 4-aminomethyl-cyclohexane carboxylic acid]
Actual amount of compound for 50% inhibition of 6 units of streptokinase ([1]; in vitro): 0.2 γ

NCC1CCC(C(=O)O)CC1 (single isomer, unassigned; isomer 4) [Isomeric AMCHA, comprising 10% active isomer, 4-aminomethyl-cyclohexane carboxylic acid]
Actual amount of compound for 50% inhibition of 6 units of streptokinase ([1]; in vitro): 2 γ
